Assay results reported in ChEMBL document CHEMBL3797052 (Eur J Med Chem, 2016).

Tests used:
Assay type in all cases: functional
[1] = Cytotoxicity against human HCT116 cells assessed as growth inhibition at 100 uM after 2 days by MTT assay; settings: HCT-116, 48 h, read-out: GI
[2] = Cytotoxicity against human HCT116 cells assessed as growth inhibition at 10 uM after 2 days by MTT assay; settings: HCT-116, 48 h, read-out: GI
[3] = Cytotoxicity against human SKBR3 cells assessed as growth inhibition at 100 uM after 2 days by MTT assay; settings: SK-BR-3, 48 h, read-out: GI
[4] = Cytotoxicity against human SKBR3 cells assessed as growth inhibition at 10 uM after 2 days by MTT assay; settings: SK-BR-3, 48 h, read-out: GI
[5] = Antiproliferative activity against human HL-60(TB) cells assessed as cell growth at 10^-5 M after 48 hrs by sulforhodamine B assay; settings: HL-60, 48 h, read-out: Activity
[6] = system: K562; assay: Antiproliferative activity against human K562 cells assessed as cell growth at 10^-5 M after 48 hrs by sulforhodamine B assay; settings: K562, 48 h, read-out: Activity
[7] = Antiproliferative activity against human MOLT4 cells assessed as cell growth at 10^-5 M after 48 hrs by sulforhodamine B assay; settings: MOLT-4, 48 h, read-out: Activity
[8] = system: SR; assay: Antiproliferative activity against human SR cells assessed as cell growth at 10^-5 M after 48 hrs by sulforhodamine B assay; settings: read-out: Activity
[9] = system: A549; assay: Antiproliferative activity against human A549/ATCC cells assessed as cell growth at 10^-5 M after 48 hrs by sulforhodamine B assay; settings: A549, 48 h, read-out: Activity
[10] = system: EKVX; assay: Antiproliferative activity against human EKVX cells assessed as cell growth at 10^-5 M after 48 hrs by sulforhodamine B assay; settings: read-out: Activity
[11] = system: NCI-H226; assay: Antiproliferative activity against human NCI-H226 cells assessed as cell growth at 10^-5 M after 48 hrs by sulforhodamine B assay; settings: NCI-H226, 48 h, read-out: Activity
[12] = system: NCI-H460; assay: Antiproliferative activity against human NCI-H460 cells assessed as cell growth at 10^-5 M after 48 hrs by sulforhodamine B assay; settings: NCI-H460, 48 h, read-out: Activity
[13] = system: NCI-H522; assay: Antiproliferative activity against human NCI-H522 cells assessed as cell growth at 10^-5 M after 48 hrs by sulforhodamine B assay; settings: NCI-H522, 48 h, read-out: Activity
[14] = Antiproliferative activity against human COLO205 cells assessed as cell growth at 10^-5 M after 48 hrs by sulforhodamine B assay; settings: COLO 205, 48 h, read-out: Activity
[15] = Antiproliferative activity against human HCC2998 cells assessed as cell growth at 10^-5 M after 48 hrs by sulforhodamine B assay; settings: HCC 2998, 48 h, read-out: Activity
[16] = Antiproliferative activity against human HCT116 cells assessed as cell growth at 10^-5 M after 48 hrs by sulforhodamine B assay; settings: HCT-116, 48 h, read-out: Activity
[17] = system: HT-29; assay: Antiproliferative activity against human HT-29 cells assessed as cell growth at 10^-5 M after 48 hrs by sulforhodamine B assay; settings: HT-29, 48 h, read-out: Activity
[18] = Antiproliferative activity against human SW620 cells assessed as cell growth at 10^-5 M after 48 hrs by sulforhodamine B assay; settings: SW-620, 48 h, read-out: Activity
[19] = Antiproliferative activity against human SF268 cells assessed as cell growth at 10^-5 M after 48 hrs by sulforhodamine B assay; settings: SF-268, 48 h, read-out: Activity
[20] = Antiproliferative activity against human SF295 cells assessed as cell growth at 10^-5 M after 48 hrs by sulforhodamine B assay; settings: SF-295, 48 h, read-out: Activity
[21] = Antiproliferative activity against human SNB75 cells assessed as cell growth at 10^-5 M after 48 hrs by sulforhodamine B assay; settings: SNB-75, 48 h, read-out: Activity
[22] = system: U-251; assay: Antiproliferative activity against human U251 cells assessed as cell growth at 10^-5 M after 48 hrs by sulforhodamine B assay; settings: U-251, 48 h, read-out: Activity
[23] = Antiproliferative activity against human LOXIMVI cells assessed as cell growth at 10^-5 M after 48 hrs by sulforhodamine B assay; settings: LOX IMVI, read-out: Activity
[24] = system: Malme-3M; assay: Antiproliferative activity against human MALME-3M cells assessed as cell growth at 10^-5 M after 48 hrs by sulforhodamine B assay; settings: read-out: Activity
[25] = Antiproliferative activity against human IGROV1 cells assessed as cell growth at 10^-5 M after 48 hrs by sulforhodamine B assay; settings: IGROV-1, 48 h, read-out: Activity
[26] = Antiproliferative activity against human OVCAR3 cells assessed as cell growth at 10^-5 M after 48 hrs by sulforhodamine B assay; settings: OVCAR-3, 48 h, read-out: Activity
[27] = Antiproliferative activity against human OVCAR5 cells assessed as cell growth at 10^-5 M after 48 hrs by sulforhodamine B assay; settings: OVCAR-5, 48 h, read-out: Activity
[28] = Antiproliferative activity against human OVCAR8 cells assessed as cell growth at 10^-5 M after 48 hrs by sulforhodamine B assay; settings: OVCAR-8, 48 h, read-out: Activity
[29] = Antiproliferative activity against human SKOV3 cells assessed as cell growth at 10^-5 M after 48 hrs by sulforhodamine B assay; settings: SK-OV-3, 48 h, read-out: Activity
[30] = system: 786-0; assay: Antiproliferative activity against human 786-0 cells assessed as cell growth at 10^-5 M after 48 hrs by sulforhodamine B assay; settings: 786-0, 48 h, read-out: Activity
[31] = Antiproliferative activity against human RXF393 cells assessed as cell growth at 10^-5 M after 48 hrs by sulforhodamine B assay; settings: RXF 393, 48 h, read-out: Activity
[32] = system: SN12C; assay: Antiproliferative activity against human SN12C cells assessed as cell growth at 10^-5 M after 48 hrs by sulforhodamine B assay; settings: read-out: Activity
[33] = Antiproliferative activity against human TK10 cells assessed as cell growth at 10^-5 M after 48 hrs by sulforhodamine B assay; settings: TK-10, 48 h, read-out: Activity
[34] = Antiproliferative activity against human UO31 cells assessed as cell growth at 10^-5 M after 48 hrs by sulforhodamine B assay; settings: UO-31, 48 h, read-out: Activity
[35] = system: MCF7; assay: Antiproliferative activity against human MCF7 cells assessed as cell growth at 10^-5 M after 48 hrs by sulforhodamine B assay; settings: MCF7, 48 h, read-out: Activity
[36] = Antiproliferative activity against human BT549 cells assessed as cell growth at 10^-5 M after 48 hrs by sulforhodamine B assay; settings: BT-549, 48 h, read-out: Activity
[37] = system: MDA-MB-468; assay: Antiproliferative activity against human MDA-MB-468 cells assessed as cell growth at 10^-5 M after 48 hrs by sulforhodamine B assay; settings: MDA-MB-468, 48 h, read-out: Activity

SMILES	inhibition of growth at 100 µM [1] [%]	inhibition of growth at 10 µM [2] [%]	inhibition of growth at 100 µM [3] [%]	inhibition of growth at 10 µM [4] [%]	growth at 10 µM [5] [%]	growth at 10 µM [6] [%]	growth at 10 µM [7] [%]	growth at 10 µM [8] [%]	growth at 10 µM [9] [%]	growth at 10 µM [10] [%]	growth at 10 µM [11] [%]	growth at 10 µM [12] [%]	growth at 10 µM [13] [%]	growth at 10 µM [14] [%]	growth at 10 µM [15] [%]	growth at 10 µM [16] [%]	growth at 10 µM [17] [%]	growth at 10 µM [18] [%]	growth at 10 µM [19] [%]	growth at 10 µM [20] [%]	other results
CNC(=O)c1cc(Oc2ccc3nc(NC(=O)c4cc(C(F)(F)F)cc(C(F)(F)F)c4)sc3c2)ccn1	76.9	16.8	80.4	8.56	-47	7	1	5	13	15	19	14	-6	-9	39	7	15	42	11	1	growth at 10 µM [21]: 10%; growth at 10 µM [22]: 12%; growth at 10 µM [23]: 11%; growth at 10 µM [24]: -17%; growth at 10 µM [25]: 27%; growth at 10 µM [26]: -19%; growth at 10 µM [27]: 32%; growth at 10 µM [28]: 8%; growth at 10 µM [29]: -10%; growth at 10 µM [30]: -9%; growth at 10 µM [31]: -8%; growth at 10 µM [32]: 6%; growth at 10 µM [33]: 8%; growth at 10 µM [34]: -4%; growth at 10 µM [35]: 17%; growth at 10 µM [36]: 5%; growth at 10 µM [37]: 5%
CNC(=O)c1cc(Oc2ccc3nc(NC(=O)Nc4ccc(Cl)cc4)sc3c2)ccn1	85.2	57.4	77.4	50.8	98.9	65.6	85.4	42.7	44.1	53.8	67.9	64.3	78	79.4	86.5	47.3	68.8	101	56.2	66.3	growth at 10 µM [21]: 50.6%; growth at 10 µM [22]: 37.3%; growth at 10 µM [23]: 51.6%; growth at 10 µM [24]: 17.7%; growth at 10 µM [25]: 83.6%; growth at 10 µM [26]: 48.8%; growth at 10 µM [27]: 92.3%; growth at 10 µM [28]: 57.2%; growth at 10 µM [29]: 82%; growth at 10 µM [30]: 75.3%; growth at 10 µM [31]: 50.8%; growth at 10 µM [32]: 62.4%; growth at 10 µM [33]: 62.3%; growth at 10 µM [34]: 62.5%; growth at 10 µM [35]: 69.5%; growth at 10 µM [36]: 102%; growth at 10 µM [37]: 55.1%
CNC(=O)c1cc(Oc2ccc3nc(NC(=O)c4cccc(F)n4)sc3c2)ccn1	55.5	10.8	89.4	12.5	78.2	77.5	80.8	55.9	75.2	90	76.3	89.5	69.8	105	114	80.5	96	105	89.6	89.1	growth at 10 µM [21]: 105%; growth at 10 µM [22]: 79.9%; growth at 10 µM [23]: 84.8%; growth at 10 µM [24]: 98.2%; growth at 10 µM [25]: 101%; growth at 10 µM [26]: 95.5%; growth at 10 µM [27]: 128%; growth at 10 µM [28]: 85%; growth at 10 µM [29]: 116%; growth at 10 µM [30]: 86%; growth at 10 µM [31]: 101%; growth at 10 µM [32]: 84.9%; growth at 10 µM [33]: 133%; growth at 10 µM [34]: 67.1%; growth at 10 µM [35]: 86.3%; growth at 10 µM [36]: 74.6%; growth at 10 µM [37]: 71.3%
CNC(=O)c1cc(Oc2ccc3nc(NC(=O)Nc4ccc(C(F)(F)F)cc4)sc3c2)ccn1	74.9	64.8	79.6	69.9	120	76.3	73.3	70.6	1.79	53.5	85.6	33.4	42.4	58.8	104	7.67	78.4	37.9	65	63.2	growth at 10 µM [21]: 29.1%; growth at 10 µM [22]: 22.4%; growth at 10 µM [23]: 48.1%; growth at 10 µM [24]: 20.8%; growth at 10 µM [25]: 70.9%; growth at 10 µM [26]: 24%; growth at 10 µM [27]: 93.9%; growth at 10 µM [28]: 48.5%; growth at 10 µM [29]: 105%; growth at 10 µM [30]: 35.5%; growth at 10 µM [31]: 85.5%; growth at 10 µM [32]: 71.2%; growth at 10 µM [33]: 55.3%; growth at 10 µM [34]: 65%; growth at 10 µM [35]: 42%; growth at 10 µM [36]: 62.3%; growth at 10 µM [37]: 49.9%
CNC(=O)c1cc(Oc2ccc3nc(NC(=O)c4ccc5c(c4)OCCO5)sc3c2)ccn1	49.9	10.5	62.3	50.7	93.7	91.2	94.7	88.3	98.8	99	99.6	104	99.6	103	103	89.6	71.3	107	96.6	99.7	growth at 10 µM [21]: 95.8%; growth at 10 µM [22]: 45.5%; growth at 10 µM [23]: 97.8%; growth at 10 µM [24]: 92.5%; growth at 10 µM [25]: 99.5%; growth at 10 µM [26]: 101%; growth at 10 µM [27]: 99.1%; growth at 10 µM [28]: 100%; growth at 10 µM [29]: 101%; growth at 10 µM [30]: 97.3%; growth at 10 µM [31]: 102%; growth at 10 µM [32]: 107%; growth at 10 µM [33]: 105%; growth at 10 µM [34]: 94.7%; growth at 10 µM [35]: 90.3%; growth at 10 µM [36]: 89.8%; growth at 10 µM [37]: 108%
